Patent publication US6599499B1, “Uses of diterpenoid triepoxides as an anti-proliferative agent” (priority 1999, dated 2003)

Legend:
Dx5 and H23 cells = assay: Growth arrest / cell cycle progression in Dx5 and H23 cells; format: cell-based, human
p53 mRNA = p53 mRNA by RT-PCR in MCF-7 cells; format: cell-based, human; settings: MCF-7 cells treated for 16 h
Experimental: RT-PCR. RNA was prepared from MCF-7 cells using Rneasy Mini Kit from Qiagen Inc. (Valencia, Calif.). cDNAs were prepared using M-MLV reverse transcriptase (Gibco) with 2 μg of total RNA. 1/20 of total cDNA was used in limited (25 cycles) PCR reactions using Taq polymerase (Gibco). The following primer pairs were used: p53 [SEQ ID NO:1] 5′-[…]-3′ and 5′-[SEQ ID NO:2] TCTTCUTXGGCTGGGGAGAG-3′, mdm2, [SEQ ID NO:3] 5′-[…]-3′ and [SEQ ID NO:4] 5′-[…]-3′, p21, [SEQ ID NO:5] 5′-[…]-3′ and [SEQ ID NO:6] 5′-[…]-3′, and glyceraldehyde-3-phosphate dehydrogenase (GAPDH)- [SEQ ID NO:7] 5′-[…]-3′ and [SEQ ID NO:8] 5′-[…]-3′.
In the experiments shown in FIG. 5, RT-PCR was performed using 2 μg of total RNAs extracted from MCF-7 cells. […] GADPH was used as a loading control. The plasmid pBP100-GL2 which contains a p53-binding site in the mdm2 promoter was transiently transfected into MCF-7 cells, and cellular lysates were used for the luciferase assay.

p21 mRNA = p21 mRNA by Northern blot in HT1080 cells; format: cell-based, human; settings: triptolide 20 ng/ml
Experimental: Northern Blot Analysis. RNA was prepared from HT1080 cells using RNeasy Mini Kit from Qiagen Inc. (Valencia, Calif.). cDNAs for Northern blot analysis for p21 and p53 were prepared using RT-PCR with […] of total RNA. The following primer pairs were used: p53, (SEQ ID NO:11) 5′-[…]-3′ and (SEQ ID NO:12) 5′-[…]-3′; p21, (SEQ ID NO:13) 5′-[…]-3′ and (SEQ ID NO:14) 5′-[…]-3′; and glyceraldehyde-3-phosphate dehydrogenase, (SEQ ID NO:15) 5′-[…]-3′ and 5′-(SEQ ID NO:16) […]-3′.

HT1080 cells = assay: Apoptosis by Annexin V and Propidium Iodide staining, HT1080 cells; format: cell-based, human; design: unit of the concentration uncertain; settings: HT1080, 20 h; PG490 5 ng/ml; CPT-11 (5 µM) alone, (5 μM) in combination; PG490 pretreatment 4 h then CPT-11 16 h
Experimental: HT1080 cells were treated as shown and harvested for analysis of apoptosis by Annexin V and Propidium Iodide staining 20 h after treatment. In experiments with a combination of PG490 and CPT-11, cells were pretreated with PG490 for 4 h followed by the addition of CPT-11 for 16 h.

Compound: CC(C)[C@]12O[C@H]1[C@@H]1O[C@]13[C@]1(O[C@H]1C[C@H]1C4=C(CC[C@@]13C)C(=O)OC4)[C@@H]2O [PG490, triptolide]
- growth arrest / cell cycle progression (Dx5 and H23 cells): did not cause growth arrest or significantly affect cell cycle progression
- p53 mRNA level (p53 mRNA): slightly reduced
- effect on doxorubicin-mediated induction of p21 mRNA (p21 mRNA): completely blocked
- Apoptotic Cells (%) (HT1080 cells): 13.5%
- DNA strand breaks (DNA strand breaks): does not induce DNA strand breaks
